From paper PMC12196347, “Evaluating Triazole-Substituted Pyrrolopyrimidines as CSF1R Inhibitors” (Molecules, 2025)
Where two headings read alike, the source gives them in different places.

Key:
[1] = target: T1, ITK (Homo sapiens, UniProt Q08881); assay: Kinase panel profiling: ITK; format: biochemical; settings: ATP equal to KM
T1 construct: purchased Thermo Fisher Scientific (Invitrogen) SelectScreen (Z'-LYTE)
T1 sequence (Q08881 1-620): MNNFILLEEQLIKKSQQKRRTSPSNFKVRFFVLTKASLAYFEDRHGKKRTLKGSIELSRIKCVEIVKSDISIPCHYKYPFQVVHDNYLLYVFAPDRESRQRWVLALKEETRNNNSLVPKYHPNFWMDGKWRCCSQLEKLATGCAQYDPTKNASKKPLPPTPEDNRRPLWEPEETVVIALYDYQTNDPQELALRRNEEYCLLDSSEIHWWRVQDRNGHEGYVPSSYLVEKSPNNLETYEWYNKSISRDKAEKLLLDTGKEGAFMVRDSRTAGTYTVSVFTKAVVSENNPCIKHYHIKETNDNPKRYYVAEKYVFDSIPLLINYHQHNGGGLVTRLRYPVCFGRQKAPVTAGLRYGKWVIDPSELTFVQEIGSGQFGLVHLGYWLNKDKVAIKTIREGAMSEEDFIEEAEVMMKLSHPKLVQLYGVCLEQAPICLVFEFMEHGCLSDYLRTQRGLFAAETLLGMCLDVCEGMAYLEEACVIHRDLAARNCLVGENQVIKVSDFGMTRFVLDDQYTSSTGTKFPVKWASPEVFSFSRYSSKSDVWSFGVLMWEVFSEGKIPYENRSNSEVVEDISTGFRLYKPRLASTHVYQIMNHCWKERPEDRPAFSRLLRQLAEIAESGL

[2] = target: T2, NEK1 (Homo sapiens, UniProt Q96PY6); assay: Kinase panel profiling: NEK1; format: biochemical; settings: ATP equal to KM
T2 construct: purchased Thermo Fisher Scientific (Invitrogen) SelectScreen (Z'-LYTE)

[3] = 1000 nM test concentration, read-out: Average inhibition (%)
[4] = 1000 nM, first data point, read-out: Inhibition (%)

T2 sequence (Q96PY6 whole entry): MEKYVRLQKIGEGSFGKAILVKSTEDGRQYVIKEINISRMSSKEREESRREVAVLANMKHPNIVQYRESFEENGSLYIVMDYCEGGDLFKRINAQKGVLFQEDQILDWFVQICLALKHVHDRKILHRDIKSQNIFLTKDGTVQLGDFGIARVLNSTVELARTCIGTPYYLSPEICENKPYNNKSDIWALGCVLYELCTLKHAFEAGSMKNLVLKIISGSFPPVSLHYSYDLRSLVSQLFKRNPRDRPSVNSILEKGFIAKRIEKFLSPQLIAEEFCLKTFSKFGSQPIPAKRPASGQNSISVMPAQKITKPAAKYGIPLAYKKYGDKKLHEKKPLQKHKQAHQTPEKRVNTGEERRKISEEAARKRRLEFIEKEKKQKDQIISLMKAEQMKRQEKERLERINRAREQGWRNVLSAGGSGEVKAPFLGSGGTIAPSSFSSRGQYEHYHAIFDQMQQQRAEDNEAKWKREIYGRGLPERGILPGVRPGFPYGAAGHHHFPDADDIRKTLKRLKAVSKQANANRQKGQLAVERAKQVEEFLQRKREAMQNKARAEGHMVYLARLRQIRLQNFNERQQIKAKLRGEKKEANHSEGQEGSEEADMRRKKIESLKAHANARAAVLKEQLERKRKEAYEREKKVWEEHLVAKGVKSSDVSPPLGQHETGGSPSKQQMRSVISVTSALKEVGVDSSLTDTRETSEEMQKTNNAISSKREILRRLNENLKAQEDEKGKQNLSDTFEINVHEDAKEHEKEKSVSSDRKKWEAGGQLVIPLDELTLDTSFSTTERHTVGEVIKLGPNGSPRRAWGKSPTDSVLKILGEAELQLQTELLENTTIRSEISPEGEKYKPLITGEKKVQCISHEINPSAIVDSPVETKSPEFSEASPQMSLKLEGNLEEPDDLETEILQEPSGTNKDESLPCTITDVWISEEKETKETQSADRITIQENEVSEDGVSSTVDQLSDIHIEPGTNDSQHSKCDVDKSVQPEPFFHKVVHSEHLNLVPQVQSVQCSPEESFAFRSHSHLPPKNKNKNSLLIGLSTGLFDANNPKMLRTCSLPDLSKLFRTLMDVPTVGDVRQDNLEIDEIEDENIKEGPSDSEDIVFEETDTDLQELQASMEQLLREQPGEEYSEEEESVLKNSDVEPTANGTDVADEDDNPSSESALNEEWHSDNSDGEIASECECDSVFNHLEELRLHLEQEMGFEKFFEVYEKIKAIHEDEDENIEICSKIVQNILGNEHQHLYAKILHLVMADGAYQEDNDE

inhibition at 1 µM [1, 3]: 55%
inhibition at 1 µM [1, 4]: 58%
inhibition at 1 µM ([1]; 1000 nM, second data point, read-out: Inhibition (%)): 51%
inhibition at 1 µM [2, 3]: 28%
inhibition at 1 µM [2, 4]: 28%
Structure (SMILES): Cc1cccc(CN(C)c2ncnc3[nH]c(-c4cn(Cc5cccnc5)nn4)cc23)c1 [Compound 27a, N-Methyl-N-(3-methylbenzyl)-6-(1-(pyridin-3-ylmethyl)-1H-1,2,3-triazol-4-yl)-7H-pyrrolo[2,3-d]pyrimidin-4-amine]
